According to patent US20110086834A1, “ALKYNYL ALCOHOLS AS KINASE INHIBITORS” (AMGEN INC., priority 2008, published 2011):

Target: T1, NIK (Homo sapiens, UniProt Q99558)
T1 construct: Both assays utilize a truncated form of NIK containing only the catalytic domain; made in house; host or cells: baculovirus expression system (insect cells implied)
Test: homogenous time resolved fluorescence (HTRF) assay for NIK Ki measurement
Format: biochemical
Settings: not given

T1 sequence (Q99558 400-655 limits assumed): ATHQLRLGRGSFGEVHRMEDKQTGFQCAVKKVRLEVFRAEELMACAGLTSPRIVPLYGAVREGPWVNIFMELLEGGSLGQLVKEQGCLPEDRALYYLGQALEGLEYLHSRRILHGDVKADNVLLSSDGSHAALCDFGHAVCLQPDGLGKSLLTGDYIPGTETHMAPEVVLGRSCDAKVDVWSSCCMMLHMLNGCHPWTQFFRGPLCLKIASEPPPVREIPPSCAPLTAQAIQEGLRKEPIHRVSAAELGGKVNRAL

Row | Ki | SMILES
1 | < 1000 nM | COCCOc1cnc(N)nc1-c1c[nH]c2ccc(C#CC(C)(C)O)cc12 [Example 224, 4-(3-(2-Amino-5-(2-methoxyethoxy)-4-pyrimidinyl)-1H-indol-5-yl)-2-methyl-3-butyn-2-ol]

Same assay, conditions: truncated NIK (catalytic domain only), autophosphorylation; 10 nM enzyme; 20, 100, 200 or 500 μM ATP; room temperature, 2 hours; read-out: Ki activity in the homogenous time resolved fluorescence (HTRF) assay for NIK

Row | SMILES | Ki
2 | CN1CCC2(C=C(c3nc(N)ncc3Cl)c3cc(C#CC4(O)CCCC4)ccc32)CC1 [Example 222, 1-((3-(2-Amino-5-chloro-4-pyrimidinyl)-1′-methylspiro[indene-1,4′-piperidin]-5-yl)ethynyl)cyclopentanol] | < 1000 nM
3 | COCCOc1cnc(N)nc1-c1c[nH]c2ccc(C#CC3(O)CCOCC3)cc12 [Example 226, 4-((3-(2-Amino-5-(2-methoxyethoxy)-4-pyrimidinyl)-1H-indol-5-yl)ethynyl)tetrahydro-2H-pyran-4-ol] | 1000 to 30000 nM
4 | COCCOc1cnc(N)nc1-c1c[nH]c2c(F)cc(C#CC3(O)CCCC3)cc12 [Example 229, 1-((3-(2-Amino-5-(2-methoxyethoxy)-4-pyrimidinyl)-7-fluoro-1H-indol-5-yl)ethynyl)cyclopentanol] | < 1000 nM
5 | Nc1ncc(OCCN2CCOCC2)c(-c2c[nH]c3ccc(C#CC4(O)CCCC4)cc23)n1 [Example 230, 1-((3-(2-Amino-5-(2-(4-morpholinyl)ethoxy)-4-pyrimidinyl)-1H-indol-5-yl)ethynyl)cyclopentanol] | 1000 to 30000 nM
6 | Nc1ncc(OCCOCCN2CCOCC2)c(-c2c[nH]c3ccc(C#CC4(O)CCCC4)cc23)n1 [Example 231, 1-((3-(2-Amino-5-(2-(2-(4-morpholinyl)ethoxy)ethoxy)-4-pyrimidinyl)-1H-indol-5-yl)ethynyl)cyclopentanol] | < 1000 nM
7 | Nc1ncc(OCc2cccnc2)c(-c2c[nH]c3ccc(C#CC4(O)CCCC4)cc23)n1 [Example 232, 1-((3-(2-Amino-5-(3-pyridinylmethoxy)-4-pyrimidinyl)-1H-indol-5-yl)ethynyl)cyclopentanol] | < 1000 nM
8 | COCCOc1cnc(N)nc1-c1cn(C)c2ccc(C#CC3(O)CCCC3)cc12 [Example 233, 1-((3-(2-Amino-5-(2-methoxyethoxy)-4-pyrimidinyl)-1-methyl-1H-indol-5-yl)ethynyl)cyclopentanol] | < 1000 nM
9 | COCCOc1cnc(N)nc1-c1cn(CCOC)c2ccc(C#CC3(O)CCCC3)cc12 [Example 234, 1-((3-(2-Amino-5-(2-methoxyethoxy)-4-pyrimidinyl)-1-(2-methoxyethyl)-1H-indol-5-yl)ethynyl)cyclopentanol] | < 1000 nM
10 | COCCOc1cnc(N)nc1-c1c[nH]c2ccc(C#CC(O)(c3cccc(F)c3)C(F)(F)F)cc12 (centres unmarked) [Example 236, 4-(3-(2-Amino-5-(2-methoxyethoxy)-4-pyrimidinyl)-1H-indol-5-yl)-1,1,1-trifluoro-2-(3-fluorophenyl)-3-butyn-2-ol] | 1000 to 30000 nM
11 | COCCOc1cncnc1-c1c[nH]c2ccc(C#CC3(O)CCCC3)cc12 [Example 237, 1-((3-(5-(2-Methoxyethoxy)-4-pyrimidinyl)-1H-indol-5-yl)ethynyl)cyclopentanol] | < 1000 nM
12 | Nc1ncc2c(n1)-c1c([nH]c3ccc(C#CC4(O)CCCC4)cc13)CCC2 [Example 238, 1-((2-Amino-5,6,7,8-tetrahydropyrimido[4′,′:3,4]cyclohepta[1,2-b]indol-11-yl)ethynyl)cyclopentanol] | < 1000 nM
13 | Nc1ncc2c(n1)-c1c([nH]c3ccc(C#CC4(O)CCCCC4)cc13)CCC2 [Example 239, 1-((2-Amino-5,6,7,8-tetrahydropyrimido[4′,′:3,4]cyclohepta[1,2-b]indol-11-yl)ethynyl)cyclohexanol] | < 1000 nM
14 | OC1(C#Cc2ccc3[nH]c4c(c3c2)-c2ncncc2CCC4)CCCC1 [Example 241, 1-(5,6,7,8-Tetrahydropyrimido[4′,′:3,4]cyclohepta[1,2-b]indol-11-ylethynyl)cyclopentanol] | < 1000 nM
15 | Cc1ncc2c(n1)-c1c([nH]c3ccc(C#CC(C)(C)O)cc13)CCC2 [Example 242, 2-Methyl-4-(2-methyl-5,6,7,8-tetrahydropyrimido[4′,′:3,4]cyclohepta[1,2-b]indol-1′-yl)-3-butyn-2-ol] | 1000 to 30000 nM
16 | Nc1ncc2c(n1)-c1c([nH]c3ccc(C#CC4(O)CCCC4)cc13)C(=O)NC2 [Example 243, 2-Amino-11-((1-hydroxycyclopentyl)ethynyl)-5,8-dihydropyrimido[4′,′:5,6]azepino[3,4-b]indol-7(6H)-one] | < 1000 nM
17 | CN1Cc2cnc(N)nc2-c2c(n(C)c3ccc(C#CC4(O)CCCC4)cc23)C1=O [Example 244, 2-Amino-1′-((1-hydroxycyclopentyl)ethynyl)-6,8-dimethyl-5,8-dihydropyrimido[4′,5′:5,6]azepino[3,4-b]indol-7(6H)-one] | < 1000 nM

Further lines, results first:

Row | Ki | SMILES
18 | < 1000 nM | CC(C)(O)C#Cc1ccc2c(c1)N(c1nc(N)ncc1Cl)CC21CCS(=O)(=O)CC1 [Example 217, 4-(1-(2-Amino-5-chloro-4-pyrimidinyl)-1′,1′-dioxido-1,2,2′,3′,5′,6′-hexahydrospiro[indole-3,4′-thiopyran]-6-yl)-2-methyl-3-butyn-2-ol]
19 | < 1000 nM | C[C@@](O)(C#Cc1ccc2c(c1)N(c1nc(N)ncc1Cl)CC21CCS(=O)(=O)CC1)c1nccs1 [Example 218, (2R)-4-(1-(2-Amino-5-chloro-4-pyrimidinyl)-1′,1′-dioxido-1,2,2′,3′,5′,6′-hexahydrospiro[indole-3,4′-thiopyran]-6-yl)-2-(1,3-thiazol-2-yl)-3-butyn-2-ol]
20 | < 1000 nM | Nc1ncc(Cl)c(C2=CC3(CCOCC3)c3ccc(C#CC4(O)CCCC4)cc32)n1 [Example 219, 1-((3-(2-Amino-5-chloro-4-pyrimidinyl)-2′,3′,5′,6′-tetrahydrospiro[indene-1,4′-pyran]-5-yl)ethynyl)cyclopentanol]
21 | < 1000 nM | Nc1nccc(C2=CC3(CCOCC3)c3ccc(C#CC4(O)CCCC4)cc32)n1 [Example 220, 1-((3-(2-Amino-4-pyrimidinyl)-2′,3′,5′,6′-tetrahydrospiro[indene-1,4′-pyran]-5-yl)ethynyl)cyclopentanol]
22 | < 1000 nM | C[C@@](O)(C#Cc1ccc2c(c1)C(c1nc(N)ncc1Cl)=CC21CCOCC1)c1nccs1 [Example 221, (2R)-4-(3-(2-Amino-5-chloro-4-pyrimidinyl)-2′,3′,5′,6′-tetrahydrospiro[indene-1,4′-pyran]-5-yl)-2-(1,3-thiazol-2-yl)-3-butyn-2-ol]
23 | < 1000 nM | COCCOc1cnc(N)nc1-c1c[nH]c2ccc(C#CC3(O)CCCC3)cc12 [Example 223, 1-((3-(2-Amino-5-(2-methoxyethoxy)-4-pyrimidinyl)-1H-indol-5-yl)ethynyl)cyclopentanol]
24 | < 1000 nM | COCCOc1cnc(N)nc1-c1c[nH]c2ccc(C#CC3(O)CCC3)cc12 [Example 225, 1-((3-(2-Amino-5-(2-methoxyethoxy)-4-pyrimidinyl)-1H-indol-5-yl)ethynyl)cyclobutanol]
25 | < 1000 nM | COc1cnc(N)nc1-c1c[nH]c2ccc(C#CC3(O)CCCC3)cc12 [Example 227, 1-((3-(2-Amino-5-methoxy-4-pyrimidinyl)-1H-indol-5-yl)ethynyl)cyclopentanol]
26 | < 1000 nM | COCCOCCOc1cnc(N)nc1-c1c[nH]c2ccc(C#CC3(O)CCCC3)cc12 [Example 228, 1-((3-(2-Amino-5-(2-(2-methoxyethoxy)ethoxy)-4-pyrimidinyl)-1H-indol-5-yl)ethynyl)cyclopentanol]
